Test results reported in patent US20150297564A1 (CORNELL UNIVERSITY, priority 2014, published 2015).
One block for each molecule: values may come before it.

Key:
[1] = test system: islets isolated from WT, GKO, SKO, and dKO mice; test: Glucose-stimulated insulin secretion (GSIS) of isolated islets; assay type: cell-based, mouse; conditions: for GSIS (insulin secretion) versus solvent control: 16.7 mM glucose, 5 hour pre-treatment
Description: (§1) All chemicals were purchased from Sigma (Saint Louis, Mo.) unless indicated otherwise. Detailed protocols, reagents, and instruments for islet isolation, culture, and insulin secretion were the same as described previously (Wang et al., “Molecular Mechanisms for Hyperinsulinaemia Induced by Overproduction of Selenium-Dependent Glutathione Peroxidase-1 in Mice,” Diabetologia 51:1515-1524 (2008), which is hereby incorporated by reference in its entirety). Briefly, Langerhans' islets were isolated from the WT, GKO, SKO, and dKO mice using a standard procedure (Gotoh et al., “An Improved Method for Isolation of Mouse Pancreatic Islets,” Transplantation 40:437-438 (1985), which is hereby incorporated by reference in its entirety) with minor modifications. Isolated islets (50 per sample, n=3 per group) were recovered in RPMI 1640 (Gibco, Grand Island, N.Y.) with 5.5 mM glucose and 10% FBS for 2 hours before treatment. For the islet experiments, ebselen, CuDIPs, and Se (sodium selenite) were used at 50, 10, and 0.1 μM and prepared in DMSO, ethanol, and saline, respectively. The same amounts of vehicle were used as the respective controls. The chemicals were removed after 5 hour incubation, and the islets were transferred to Krebs-Henseleit buffer for 30 min and then incubated for 60 min with 2.8 or 16.7 mM glucose in the same buffer. The supernatants were collected for insulin analysis and the islets were used for mRNA, protein, and enzyme activity analyses.

GLUT2 = test: Islet GLUT2 protein level (Western blot); assay type: cell-based, mouse
Description: as §1
(§2) Islet samples used for Western blot analysis were homogenized in phosphate buffer (50 mM, pH 7.4) containing 0.1% Triton X-100 and protease inhibitor mixture (AEBSF, aprotinin, bestatin hydrochloride, E-64-[N-(transepoxysuccinyl)-L-leucine 4-guanidinobutylamide], leupeptin, and pepstatin A). The homogenates were centrifuged at 14000×g for 10 min at 4° C. A total of 10 μg of protein per lane was subjected to Western blot analysis (McClung et al., “Development of Insulin Resistance and Obesity in Mice Overexpressing Cellular Glutathione Peroxidase,” Proc. Natl. Acad. Sci. USA 101:8852-8857 (2004), which is hereby incorporated by reference in its entirety). After the gel electrophoresis, the separated proteins were transferred onto a protran BA85 nitrocellulose membrane (Schleicher Schuell Bioscience, Keene, N.H.). The membranes were incubated first with respective primary antibodies (rabbit anti-GLUT2, anti-PDX1, and anti-UCP2, Millipore, Billerica, Mass.), and thereafter the second antibody against rabbit IgG (Bio-Rad, Hercules, Calif.). For loading and transfer normalization, the rabbit anti-β-actin antibody (Cell Signaling, Beverly, Mass.) was used. An enhanced chemiluminescent kit (Pierce, Rockford, Ill.) was used for detection of the band intensity.

GK = test: Islet GK enzyme activity after treatment; assay type: cell-based, mouse
Description: as §1
(§3) Islet GK activity was assayed at 28° C. by measuring absorbance increases of NADPH at 340 nm in a coupled enzyme system. One unit of GK activity was defined as the amount that catalyzes the formation of 1 μmole of glucose 6-phosphate per minute. Islet and liver LDH activities were measured using a kit from Sigma according to the manufacturer's instructions. Islet and liver GSR activities were measured as previously-described (Zhu et al., “Double Null of Selenium-Glutathione Peroxidase-1 and Copper, Zinc-Superoxide Dismutase Enhances Resistance of Mouse Primary Hepatocytes to Acetaminophen Toxicity,” Exp. Biol. Med. (Maywood) 231:545-552 (2006), which is hereby incorporated by reference in its entirety) and one unit of activity was defined as 1 nmol of glutathione disulfide reduced per minute. Plasma ALT activity was assayed using a kit (Thermo Scientific, Waltham, Mass.) according to the manufacturer's instructions. Plasma AKP activity was measured by the hydrolysis of p-nitrophenol phosphate to p-nitrophenol, and the enzyme activity unit was defined as the amount of activity that releases 1 μmol of p-nitrophenol per minute at 30° C. (Bowers et al., “A Continuous Spectrophotometric Method for Measuring the Activity of Serum Alkaline Phosphatase,” Clin. Chem. 12:70-89 (1966), which is hereby incorporated by reference in its entirety).

UCP2 = test: Islet UCP2 protein level (Western blot); assay type: cell-based, mouse
Description: as §1, §2

PDX1 = test: Islet PDX1 protein level (Western blot); assay type: cell-based, mouse
Description: as §1, §2

[2] = target: T1, glutathione reductase (GSR) (Mus musculus, UniProt P47791); test: Islet GSR activity; assay type: cell-based; conditions: WT and GKO islets
T1 construct: from tissue; host or cells: isolated pancreatic islets of WT and GKO mice
T1 sequence (P47791 27-500): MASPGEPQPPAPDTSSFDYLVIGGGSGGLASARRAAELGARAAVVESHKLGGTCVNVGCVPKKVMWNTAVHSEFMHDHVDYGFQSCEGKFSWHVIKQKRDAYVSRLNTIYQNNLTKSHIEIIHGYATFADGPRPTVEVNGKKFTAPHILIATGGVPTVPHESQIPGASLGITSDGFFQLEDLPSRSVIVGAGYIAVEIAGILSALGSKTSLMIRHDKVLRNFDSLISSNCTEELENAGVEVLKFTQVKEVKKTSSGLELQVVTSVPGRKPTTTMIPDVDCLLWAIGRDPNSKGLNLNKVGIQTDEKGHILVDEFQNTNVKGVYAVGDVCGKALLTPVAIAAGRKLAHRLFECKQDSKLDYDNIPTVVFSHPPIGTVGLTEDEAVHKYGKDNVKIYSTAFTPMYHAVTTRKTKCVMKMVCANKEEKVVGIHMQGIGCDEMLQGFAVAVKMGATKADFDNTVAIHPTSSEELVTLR
Experimental: as §3

GKO mice [3] = test: Off-target toxicity in GKO mice (plasma ALT, AKP; liver LDH, GSR); assay type: in vivo, mouse; conditions: 50 mg/kg i.p., 1 hour
Experimental: (§4) Ebselen was dissolved in dimethyl sulfoxide (DMSO) and injected with saline (1:1 by volume) together. The same volume of DMSO and saline was used as the solvent control. Blood glucose concentrations were measured by clipping tails and using the Glucometer Elite system (Bayer, Elkhart, Ind.). Plasma insulin concentrations were determined using a rat/mouse Insulin ELISA kit with mouse insulin as standards (Crystal Chem, Downers Grove, Ill.).
as §3

GKO mice [4] = test: In vivo GSIS test in GKO mice (plasma insulin); set-up: species or system mouse; conditions: fasted GKO mice
Experimental: as §4

GKO mice [5] = test: Glucose tolerance test (GTT) in GKO mice; assay type: in vivo, mouse; conditions: fasted GKO mice, 50 mg/kg i.p., glucose 1 g/kg
Experimental: as §4

[6] = i.p. in 4% w/v hydroxypropyl-β-cyclodextrin to C57BL/6 mice or suspended in water orally to humans; cited from earlier work
[7] = test system: lactate dehydrogenase (LDH); test: Islet LDH activity; assay type: cell-based, mouse; conditions: WT and GKO islets
Experimental: as §3

intracellular ROS = test: Islet intracellular ROS (DCFH-DA probe); assay type: cell-based, mouse; conditions: GKO islets, DCF probe
Experimental: Islet ROS levels were determined using the fluorescent probe, 2′,7′-dichlorofluorescin diacetate (“DCFH-DA”). Briefly, the treated islets were washed and incubated with DCFH-DA (20 μM) for 10 min at 37° C. After removal of the probe, cells were washed with pre-warmed PBS. Fluorescence was monitored at 488 nm excitation and 525 nm emission wavelengths.

[8] = test system: gk, glut2, pdx1, ucp2 and genes in the ARE, GR, Wnt and NFAT pathways; test: Real time Q-PCR of islet mRNA levels (GSIS regulators, ARE, GR, Wnt, NFAT pathway genes); assay type: cell-based, mouse; conditions: dKO islets
Description: All chemicals were purchased from Sigma (Saint Louis, Mo.) unless indicated otherwise. Detailed protocols, reagents, and instruments for islet isolation, culture, and insulin secretion were the same as described previously (Wang et al., “Molecular Mechanisms for Hyperinsulinaemia Induced by Overproduction of Selenium-Dependent Glutathione Peroxidase-1 in Mice,” Diabetologia 51:1515-1524 (2008), which is hereby incorporated by reference in its entirety). Briefly, Langerhans' islets were isolated from the WT, GKO, SKO, and dKO mice using a standard procedure (Gotoh et al., “An Improved Method for Isolation of Mouse Pancreatic Islets,” Transplantation 40:437-438 (1985), which is hereby incorporated by reference in its entirety) with minor modifications. Isolated islets (50 per sample, n=3 per group) were recovered in RPMI 1640 (Gibco, Grand Island, N.Y.) with 5.5 mM glucose and 10% FBS for 2 hours before treatment. […]
Total RNA was extracted from islets using Trizol reagent (Invitrogen, Carlsbad, Calif.). […] Relative mRNA levels were determined by real time Q-PCR (7900HT; Applied Biosystems, Foster City, Calif.) as previously described (Pepper et al., “Impacts of Dietary Selenium Deficiency on Metabolic Phenotypes of Diet-Restricted GPX1-Overexpressing Mice,” Antioxid. Redox Signal. 14:383-390 (2011), which is hereby incorporated by reference in its entirety).

Molecule: O=[Se]([O-])[O-].[Na+].[Na+] [Na2SeO3, sodium selenite]
GSIS (insulin secretion) versus solvent control ([1]; GKO islets): did not affect
GSIS (insulin secretion) versus solvent control ([1]; SKO islets): elevated
GSIS (insulin secretion) versus solvent control ([1]; WT islets): did not affect
GSIS (insulin secretion) versus solvent control ([1]; dKO islets): elevated
GLUT2 protein change versus control (direction) (GLUT2; dKO islets): Neither CuDIPs nor Na2SeO3 affected
GK activity change versus control (direction) (GK; GKO islets): increased
GK activity change versus control (direction) (GK; SKO islets): decreased
GK activity change versus control (direction) (GK; dKO islets): Neither CuDIPs nor Na2SeO3 affected
UCP2 protein change versus control (direction) (UCP2; dKO islets): Neither CuDIPs nor Na2SeO3 affected
PDX1 protein change versus control (direction) (PDX1; dKO islets): Neither CuDIPs nor Na2SeO3 affected

effect on GSR activity [2]: no effect
effect on LDH activity [7]: no effect
Molecule: O=c1c2ccccc2[se]n1-c1ccccc1 [ebselen]
GLUT2 protein elevation versus control (GLUT2; GKO islets): 2.1 fold
GLUT2 protein elevation versus control (GLUT2; SKO islets): 6.4 fold
GLUT2 protein elevation versus control (GLUT2; WT islets): 4.9 fold
GLUT2 protein elevation versus control (GLUT2; dKO islets): 85%
hepatic GSR activity versus control (GKO mice [3]): no differences
hepatic LDH activity versus control (GKO mice [3]): no differences
plasma alanine aminotransferase (ALT) activity versus control (GKO mice [3]): no differences
plasma alkaline phosphatase (AKP) activity versus control (GKO mice [3]): no differences
elevation of plasma insulin concentration versus control (GKO mice [4]; 50 mg/kg i.p. 1 hour before glucose challenge, 0 min (baseline)): 95%
elevation of plasma insulin concentration versus control (GKO mice [4]; 50 mg/kg i.p., 15 min after the glucose challenge): 1.2 fold
elevation of plasma insulin concentration versus control (GKO mice [4]; 50 mg/kg i.p., 30 min after the glucose challenge): 91%
glucose clearance improved (GKO mice [5]; 15 min): 17%
glucose clearance improved (GKO mice [5]; 30 min): 18%
glucose clearance improved (GKO mice [5]; 60 min): 21%
GK activity elevation versus control (GK; GKO islets): 20%
GK activity elevation versus control (GK; SKO islets): 86%
GK activity elevation versus control (GK; WT islets): 74%
GK activity elevation versus control (GK; dKO islets): 58%
absorption [6]: absorbed to blood
blood-brain barrier crossing [6]: crossed the blood-brain barrier
PDX1 protein elevation versus control (PDX1; GKO islets): 4.0 fold
PDX1 protein elevation versus control (PDX1; SKO islets): 3.2 fold
PDX1 protein elevation versus control (PDX1; WT islets): 5.5 fold
decrease of intracellular ROS (intracellular ROS): 74%

Molecule: copper diisopropylsalicylate [CuDIPs]
baseline insulin secretion versus solvent control ([1]; SKO islets, 2.8 mM glucose): promoted
GSIS (insulin secretion) versus solvent control ([1]; SKO islets): promoted
GSIS (insulin secretion) versus solvent control ([1]; WT islets): no effect
expression of genes in the four pathways (ARE, GR, Wnt, NFAT) versus controls [8]: suppressed
GLUT2 protein change versus control (direction) (GLUT2; GKO islets): increase
GLUT2 protein elevation versus control (GLUT2; SKO islets): 63%
GLUT2 protein change versus control (direction) (GLUT2; WT islets): increased
GLUT2 protein change versus control (direction) (GLUT2; dKO islets): Neither CuDIPs nor Na2SeO3 affected
GK activity change versus control (direction) (GK; GKO islets): decrease
GK activity change versus control (direction) (GK; dKO islets): Neither CuDIPs nor Na2SeO3 affected
UCP2 protein decrease versus control (UCP2; SKO islets): 78%
UCP2 protein change versus control (direction) (UCP2; WT islets): increased
UCP2 protein change versus control (direction) (UCP2; dKO islets): Neither CuDIPs nor Na2SeO3 affected
PDX1 protein elevation versus control (PDX1; SKO islets): 2.4 fold
PDX1 protein change versus control (direction) (PDX1; WT islets): increased
PDX1 protein change versus control (direction) (PDX1; dKO islets): Neither CuDIPs nor Na2SeO3 affected
